# From BindingDB's records for doi:10.1016/j.bmcl.2003.09.075 (Eli Lilly, 2003)
# How the values were obtained:
# [1] = molecular target: NS3 protease (Hepatitis C virus); assay: Inhibitory activity against HCV protease using replicon assay […]
# [2] = molecular target: NS3 protease (Hepatitis C virus); assay: Binding affinity towards Protease using PNA assay
# [3] = molecular target: NS3 protease (Hepatitis C virus); assay: Inhibitory activity against Protease using replicon assay […] at 25 uM concentration
# [4] = molecular target: NS3 protease (Hepatitis C virus); assay: Inhibitory activity against HCV protease in enzyme inhibition assay
SMILES,IC50 [1] [nM],Ki [2] [nM],IC50 [3] [nM],Ki [4] [nM]
"CCC(C)NC(=O)C(=O)[C@H](CC(F)F)NC(=O)[C@@H]1[C@H]2CCC[C@H]2CN1C(=O)[C@@H](NC(=O)[C@@H](NC(=O)c1cnccn1)C(C)C)C(C)(C)C (stereo partly drawn) [(1S,5S,6R)-2-((S)-3,3-Dimethyl-2-{(S)-3-methyl-2-[(pyrazine-2-carbonyl)-amino]-butyrylamino}-butyryl)-octahydro-cyclopenta[c]pyrrole-1-carboxylic acid [1-((S)-sec-butylaminooxalyl)-3,3-difluoro-propyl]-amide]",2610,480,–,–
"CC(C)[C@H](NC(=O)c1cnccn1)C(=O)N[C@H](C(=O)N1C[C@@H]2CCC[C@@H]2[C@H]1C(=O)NC(CC(F)F)C(=O)C(=O)NC1CC1)C(C)C (stereo partly drawn) [(1S,5S,6R)-2-((S)-3-Methyl-2-{(S)-3-methyl-2-[(pyrazine-2-carbonyl)-amino]-butyrylamino}-butyryl)-octahydro-cyclopenta[c]pyrrole-1-carboxylic acid (1-cyclopropylaminooxalyl-3,3-difluoro-propyl)-amide]",–,220,3780,–
"CC(C)[C@H](NC(=O)c1cnccn1)C(=O)N[C@H](C(=O)N1C[C@@H]2CCC[C@@H]2[C@H]1C(=O)N[C@@H](CC(F)F)C(=O)C(=O)N[C@@H](C)c1ccccc1)C(C)C [(1S,5S,6R)-2-((S)-3-Methyl-2-{(S)-3-methyl-2-[(pyrazine-2-carbonyl)-amino]-butyrylamino}-butyryl)-octahydro-cyclopenta[c]pyrrole-1-carboxylic acid [3,3-difluoro-1-((S)-(S)-1-phenyl-ethylaminooxalyl)-propyl]-amide]",910,–,–,400

# The remaining compounds from weak to strong by Ki [2], led by results:
IC50 [1] [nM],Ki [2] [nM],IC50 [3] [nM],Ki [4] [nM],SMILES
–,210,3480,–,"CCC[C@H](NC(=O)[C@@H]1[C@H]2CCC[C@H]2CN1C(=O)[C@@H](NC(=O)[C@@H](NC(=O)c1cnccn1)C(C)C)C(C)(C)C)C(=O)C(=O)NC(C)CC (stereo partly drawn) [(1S,5S,6R)-2-((S)-3,3-Dimethyl-2-{(S)-3-methyl-2-[(pyrazine-2-carbonyl)-amino]-butyrylamino}-butyryl)-octahydro-cyclopenta[c]pyrrole-1-carboxylic acid [1-((S)-sec-butylaminooxalyl)-butyl]-amide]"
630,120,–,–,"CC(C)[C@H](NC(=O)c1cnccn1)C(=O)N[C@H](C(=O)N1C[C@@H]2CCC[C@@H]2[C@H]1C(=O)N[C@@H](CC(F)F)C(=O)C(=O)N[C@@H](C)c1ccccc1)C(C)(C)C [(1S,5S,6R)-2-((S)-3,3-Dimethyl-2-{(S)-3-methyl-2-[(pyrazine-2-carbonyl)-amino]-butyrylamino}-butyryl)-octahydro-cyclopenta[c]pyrrole-1-carboxylic acid [3,3-difluoro-1-((S)-(S)-1-phenyl-ethylaminooxalyl)-propyl]-amide]"
